Columns and labels:
Format in all cases: ADME, organism-based
[1] = Plasma concentration in Sprague-Dawley rat at 2.5 umol/kg, sc after 1 hr; details: read-out: Drug uptake
[2] = Drug level in brain to plasma in Sprague-Dawley rat at 2.5 umol/kg, sc after 1 hr
Brain = test: Drug level in Sprague-Dawley rat brain at 2.5 umol/kg, sc after 1 hr; details: in vivo

Row | concentration at 1 h [1] | Kp at 1 h [2] | Drug uptake (Brain) | SMILES
1 | 103 nM | 1.9 | 202 nmol/kg | COc1ccccc1C(CNS(=O)(=O)c1ccc(Cl)cc1)N1CCCCCC1 (centres undefined)
2 | 105 nM | 1.6 | 168 nmol/kg | COc1ccccc1C(CNS(=O)(=O)c1ccc(F)c(Cl)c1)N1CCCCCC1 (centres undefined)
3 | 72 nM | 2.1 | 154 nmol/kg | COc1ccccc1C(CNS(=O)(=O)c1ccc(C(F)(F)F)cc1)N1CCCCCC1 (centres undefined)

From ChEMBL document CHEMBL1208781, “Identification of N-(2-(azepan-1-yl)-2-phenylethyl)-benzenesulfonamides as novel inhibitors of GlyT1” (Bioorg Med Chem Lett, 2010)
